Results as given in ChEMBL document CHEMBL5537206 (J Med Chem, 2024).
pIC50: −log10 of the molar value. Calls of active or inactive are those of the source. No cut-off for these calls is given here.

How the values were obtained:
[1] = tested on: Osimertinib-resistant NCI-H1975 cell; assay: Anticancer activity against human Osimertinib-resistant NCI-H1975 cell (AZDR) xenografted in BALB/c nude mouse model assessed as reduction in tumor weight administered as ip dose and measured upto 22 days; format: functional, organism-based; conditions: dose 20-60 mg/kg, time <= 22.0 day
[2] = tested on: Osimertinib-resistant NCI-H1975 cell; assay: Induction of apoptosis in human Osimertinib-resistant NCI-H1975 cell (AZDR) assessed as late apoptotic cells at 10 uM incubated for 24 hrs by Annexin V and propidium iodide staining based flow cytometry analysis (reference value: 1.06%); format: functional
[3] = Toxicity in BALB/c nude mouse assessed as effect on spleen at 20 to 60 mg/kg, ip measured after 22 days by H and E staining based analysis; format: organism-based; conditions: in vivo, 528 h, dose 20-60 mg/kg, time 22 day
[4] = Toxicity in BALB/c nude mouse assessed as effect on lung at 20 to 60 mg/kg, ip measured after 22 days by H and E staining based analysis; format: organism-based; conditions: in vivo, 528 h, dose 20-60 mg/kg, time 22 day
[5] = Toxicity in BALB/c nude mouse assessed as effect on kidney at 20 to 60 mg/kg, ip measured after 22 days by H and E staining based analysis; format: organism-based; conditions: in vivo, 528 h, dose 20-60 mg/kg, time 22 day
[6] = tested on: Osimertinib-resistant NCI-H1975 cell; assay: Induction of apoptosis in human Osimertinib-resistant NCI-H1975 cell (AZDR) assessed as early apoptotic cells at 1 uM incubated for 24 hrs by Annexin V and propidium iodide staining based flow cytometry analysis (reference value: 3.38%); format: functional
[7] = Toxicity in BALB/c nude mouse assessed as effect on liver at 20 to 60 mg/kg, ip measured after 22 days by H and E staining based analysis; format: organism-based; conditions: in vivo, 528 h, dose 20-60 mg/kg, time 22 day
Mus musculus = assay: In vivo inhibition of EGFR L858R/T790M mutant in BALB/c nude mouse xenografted with human Osimertinib-resistant NCI-H1975 cell (AZDR) assessed as downregulation of AKT phosphorylation at 60 mg/kg, ip measured after 22 days; format: functional, organism-based; conditions: time 22.0 day
[8] = tested on: Osimertinib-resistant NCI-H1975 cell; assay: Antiproliferative activity against human Osimertinib-resistant NCI-H1975 cell (AZDR) incubated for 72 hrs by MTT assay; format: functional, cell-based
MCF7 = assay: Antiproliferative activity against human MCF7 cells incubated for 72 hrs by MTT assay; format: functional, cell-based; conditions: MCF7, 72 h
[9] = tested on: Osimertinib-resistant NCI-H1975 cell; assay: Anticancer activity against human Osimertinib-resistant NCI-H1975 cell (AZDR) xenografted in BALB/c nude mouse model assessed as increase in tumor cell apoptosis administered as ip dose by TUNEL assay; format: functional, organism-based; conditions: dose 20-60 mg/kg
[10] = tested on: Osimertinib-resistant NCI-H1975 cell; assay: Induction of apoptosis in human Osimertinib-resistant NCI-H1975 cell (AZDR) assessed as late apoptotic cells at 1 uM incubated for 24 hrs by Annexin V and propidium iodide staining based flow cytometry analysis (reference value: 1.06%); format: functional
[11] = tested on: Osimertinib-resistant NCI-H1975 cell; assay: Induction of apoptosis in human Osimertinib-resistant NCI-H1975 cell (AZDR) assessed as caspase3/7 activation using caspase-glo 3/7 as substrate incubated for 24 hrs by luminescence based analysis; format: functional; conditions: dose 0.1-10 µM
[12] = tested on: Osimertinib-resistant NCI-H1975 cell; assay: Induction of apoptosis in human Osimertinib-resistant NCI-H1975 cell (AZDR) assessed as early apoptotic cells at 0.1 uM incubated for 24 hrs by Annexin V and propidium iodide staining based flow cytometry analysis (reference value: 3.38%); format: functional
NCI-H1975 = assay: Antiproliferative activity against human NCI-H1975 cells incubated for 72 hrs by MTT assay; format: functional, cell-based; conditions: NCI-H1975, 72 h
[13] = molecular target: T1, Serine/threonine-protein kinase AKT (Homo sapiens) (UniProt P31751+Q9Y243+P31749); assay: Inhibition of AKT phosphorylation in human Osimertinib-resistant NCI-H1975 cell (AZDR) at 0.1 to 10 uM incubated for 24 hrs by Western blot analysis; format: cell-based; conditions: dose 0.1-10 µM
T1 sequence (P31749 whole entry, looked up): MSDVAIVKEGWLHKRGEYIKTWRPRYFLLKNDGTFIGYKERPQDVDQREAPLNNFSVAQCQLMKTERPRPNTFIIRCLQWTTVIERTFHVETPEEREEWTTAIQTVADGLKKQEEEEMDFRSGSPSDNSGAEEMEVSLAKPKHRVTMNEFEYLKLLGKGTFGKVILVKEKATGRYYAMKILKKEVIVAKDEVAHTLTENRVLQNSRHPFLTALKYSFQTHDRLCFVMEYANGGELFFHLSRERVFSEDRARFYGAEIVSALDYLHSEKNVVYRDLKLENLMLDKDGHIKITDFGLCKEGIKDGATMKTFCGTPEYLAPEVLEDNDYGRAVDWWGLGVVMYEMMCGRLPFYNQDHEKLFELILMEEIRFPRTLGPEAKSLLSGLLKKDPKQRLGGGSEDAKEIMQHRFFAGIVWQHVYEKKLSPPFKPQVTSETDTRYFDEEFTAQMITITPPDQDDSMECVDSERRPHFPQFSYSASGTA
T1 sequence (P31751 whole entry, looked up): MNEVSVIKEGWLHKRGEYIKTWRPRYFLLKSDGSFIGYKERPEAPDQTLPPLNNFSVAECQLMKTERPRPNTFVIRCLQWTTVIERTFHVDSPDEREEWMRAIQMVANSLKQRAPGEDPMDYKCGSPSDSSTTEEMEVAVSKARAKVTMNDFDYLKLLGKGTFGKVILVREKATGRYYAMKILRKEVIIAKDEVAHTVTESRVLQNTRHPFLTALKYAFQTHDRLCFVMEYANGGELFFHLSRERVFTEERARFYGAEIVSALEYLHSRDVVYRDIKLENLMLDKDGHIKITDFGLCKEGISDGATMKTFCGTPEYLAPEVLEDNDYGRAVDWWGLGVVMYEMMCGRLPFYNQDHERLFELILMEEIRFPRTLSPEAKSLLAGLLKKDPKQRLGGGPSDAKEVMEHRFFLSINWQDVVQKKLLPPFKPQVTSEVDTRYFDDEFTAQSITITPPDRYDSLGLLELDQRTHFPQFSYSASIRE
T1 sequence (Q9Y243 whole entry, looked up): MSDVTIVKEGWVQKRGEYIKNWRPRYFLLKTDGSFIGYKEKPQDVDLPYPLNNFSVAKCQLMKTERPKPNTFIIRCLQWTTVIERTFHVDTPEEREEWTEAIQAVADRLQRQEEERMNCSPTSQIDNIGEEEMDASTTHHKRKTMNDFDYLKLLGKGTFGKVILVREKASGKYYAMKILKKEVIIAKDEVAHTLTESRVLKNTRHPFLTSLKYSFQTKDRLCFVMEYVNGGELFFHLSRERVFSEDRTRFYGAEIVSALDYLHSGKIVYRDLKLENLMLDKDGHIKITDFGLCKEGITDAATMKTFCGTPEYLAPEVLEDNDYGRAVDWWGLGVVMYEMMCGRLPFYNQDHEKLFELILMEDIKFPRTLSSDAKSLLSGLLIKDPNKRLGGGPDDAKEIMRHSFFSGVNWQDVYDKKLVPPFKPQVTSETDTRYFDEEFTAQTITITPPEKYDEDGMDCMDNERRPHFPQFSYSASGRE

[14] = Toxicity in BALB/c nude mouse assessed as effect on heart at 20 to 60 mg/kg, ip measured after 22 days by H and E staining based analysis; format: organism-based; conditions: in vivo, 528 h, dose 20-60 mg/kg, time 22 day
[15] = tested on: Osimertinib-resistant NCI-H1975 cell; assay: Induction of apoptosis in human Osimertinib-resistant NCI-H1975 cell (AZDR) assessed as caspase3/7 activation using caspase-glo 3/7 as substrate at 0.1 to 10 uM by luminescence based analysis; format: functional; conditions: dose 0.1-10 µM, time 24-72 hrs, TDE = time-dependent effect
[16] = Toxicity in BALB/c nude mouse assessed as effect on body weight at 20 to 60 mg/kg, ip measured upto 22 days; format: organism-based; conditions: in vivo, 528 h, dose 20-60 mg/kg, time < 22 day
[17] = molecular target: T2, Tyrosine-protein kinase ITK/TSK (Homo sapiens) (UniProt Q08881); assay: Inhibition of human ITK at 1 uM relative to control
T2 sequence (whole entry): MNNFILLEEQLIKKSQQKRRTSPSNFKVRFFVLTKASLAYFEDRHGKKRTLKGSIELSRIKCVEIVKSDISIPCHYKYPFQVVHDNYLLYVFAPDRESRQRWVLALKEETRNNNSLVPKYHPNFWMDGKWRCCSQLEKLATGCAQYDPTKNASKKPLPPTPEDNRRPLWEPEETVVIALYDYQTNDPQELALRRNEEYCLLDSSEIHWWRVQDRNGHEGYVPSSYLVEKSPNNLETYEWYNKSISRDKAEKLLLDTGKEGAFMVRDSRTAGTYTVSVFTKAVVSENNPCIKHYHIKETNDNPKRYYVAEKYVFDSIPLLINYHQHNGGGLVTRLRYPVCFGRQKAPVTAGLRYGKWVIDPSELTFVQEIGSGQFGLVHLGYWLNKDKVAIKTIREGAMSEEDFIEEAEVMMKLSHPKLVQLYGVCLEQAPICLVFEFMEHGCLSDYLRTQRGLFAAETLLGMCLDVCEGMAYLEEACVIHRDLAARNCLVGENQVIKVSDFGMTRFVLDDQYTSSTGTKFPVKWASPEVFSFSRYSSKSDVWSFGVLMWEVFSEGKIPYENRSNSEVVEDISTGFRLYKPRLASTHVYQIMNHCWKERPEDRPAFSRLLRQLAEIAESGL

[18] = tested on: Osimertinib-resistant NCI-H1975 cell; assay: Induction of apoptosis in human Osimertinib-resistant NCI-H1975 cell (AZDR) assessed as late apoptotic cells at 0.1 uM incubated for 24 hrs by Annexin V and propidium iodide staining based flow cytometry analysis (reference value: 1.06%); format: functional
[19] = tested on: Osimertinib-resistant NCI-H1975 cell; assay: Induction of apoptosis in human Osimertinib-resistant NCI-H1975 cell (AZDR) assessed as increase in number of apoptotic cells measured after 24 hrs by Hoechst 33258 staining based analysis; format: functional; conditions: dose 0.1-10 µM
[20] = Stability of the compound assessed as half life in presence of glutathione at pH 7.4; format: physicochemical; conditions: solution containing glutathione
[21] = tested on: Osimertinib-resistant NCI-H1975 cell; assay: Induction of apoptosis in human Osimertinib-resistant NCI-H1975 cell (AZDR) assessed as early apoptotic cells at 10 uM incubated for 24 hrs by Annexin V and propidium iodide staining based flow cytometry analysis (reference value: 3.38%); format: functional
[22] = tested on: Osimertinib-resistant NCI-H1975 cell; assay: Inhibition of cell migration in human Osimertinib-resistant NCI-H1975 cell (AZDR) measured after 24 hrs by wound healing assay; format: functional, cell-based; conditions: dose 0.1-10 µM
[23] = tested on: Osimertinib-resistant NCI-H1975 cell; assay: Anticancer activity against human Osimertinib-resistant NCI-H1975 cell (AZDR) xenografted in BALB/c nude mouse model assessed as inhibition of tumor growth administered as ip dose and measured upto 22 days; format: functional, organism-based; conditions: dose 20-60 mg/kg, time <= 22.0 day
[24] = molecular target: T1, Serine/threonine-protein kinase AKT (Homo sapiens); assay: Inhibition of AKT phosphorylation in human NCI-H1975 cells incubated for 24 hrs by Western blot analysis; format: cell-based; conditions: dose 0.1-10 µM
[25] = tested on: Osimertinib-resistant NCI-H1975 cell; assay: Inhibition of colony formation in human Osimertinib-resistant NCI-H1975 cell (AZDR) measured after 14 days by crystal violet staining based analysis; format: functional; conditions: dose 0.1-10 µM, time 14.0 day

pIC50 [8]: 6.17
pIC50 (MCF7): 5.90
pIC50 (NCI-H1975): 5.98
inhibition [13]: Active
inhibition [17]: 81%
half-life [20]: 13.8 h
inhibition [24]: Dose-Dependent Effect
SMILES: C=CC(=O)Nc1cccc(Nc2nc(Nc3cnn(CC)c3)nc3ccc(Cl)cc23)c1
Activity [1]: Dose-Dependent Effect
Activity [2]: 30.7%
Activity [3]: Non-Toxic
Activity [4]: Non-Toxic
Activity [5]: Non-Toxic
Activity [6]: 17.1%
Activity [7]: Non-Toxic
inhibition (Mus musculus): Active
Activity [9]: Dose-Dependent Effect
Activity [10]: 16.1%
Activity [11]: Dose-Dependent Effect
Activity [12]: 10.7%
Activity [14]: Non-Toxic
Activity [15]: Tde
Activity [16]: Non-Toxic
Activity [18]: 9.97%
Activity [19]: Dose-Dependent Effect
Activity [21]: 48.6%
inhibition [22]: Active
Activity [23]: Dose-Dependent Effect
inhibition [25]: Dose-Dependent Effect
